Data reported in patent US4738954A, “Novel N^6 -substituted-5'-oxidized adenosine analogs” (Warner-Lambert Company, priority 1985, dated 1988).

How the values were obtained:
mouse locomotor activity = assay: Mouse Activity and Screen Test Procedure (MAST): locomotor activity; assay type: in vivo, Swiss-Webster male mice; conditions: mice, one hour
Text: The compounds of the invention are new chemical substances which are useful as pharmaceutical agents for the treatment of psychoses. The antipsychotic activity of representative compounds of the invention was established by the Mouse Activity and Screen Test Procedure (MAST) described below.
Nine unfasted Swiss-Webster male mice weighing 20-30 g are equally divided into three groups for each drug dose to be tested. That is, data for each dose level was generated by three separate groups of three mice each.
A minimum of three dose levels (10, 30, and 100 mg/kg) are tested for each drug. Treatments are administered intraperitoneally one hour prior to testing. All dosages are calculated as parent compound and given in volumes of 10 ml/kg. Compounds are dissolved or suspended in 0.2% Methocel. Control animals are injected with Methocel.
A two part testing procedure is started one hour postinjection. First, the screen test (ST) is performed (see Pharmac. Biochem. Behav. 6, 351-353, 1977). Briefly this test consists of placing mice on individual wire screens which are then rotated 180 degrees at the start of a 60 second observation period. The number of mice falling off the inverted screen is recorded.
Immediately following the screen test, the final phase of testing is initiated by placing each group of three mice in one actophotometer (Life Sciences, 22, 1067-1076, 1978). The actophotometer consists of a cylindrical chamber whose center is occupied by another cylinder which contains the illumination for six photocells located on the perimeter of the chamber. Six light-beam interruptions equal one count. Locomotor activity is recorded by computer at ten minute intervals for 60 minutes.
The data obtained from the screen test are expressed as percent of mice falling off the screen. Data derived from locomotor activity of drug treated mice are compared to the activity of vehicle treated animals and are expressed as percent inhibition of spontaneous locomotion. All percentages reported for inhibition of locomotion (LI) are based upon data accumulated for one hour. Both phases of testing are graded: A=60-100%; C=31-59%; and N=0-30%. An overall dose rating is obtained by the following criteria:
LAD refers to the lowest dose at which an A rating is achieved. […] Utilizing this procedure, an overall dose rating of A was obtained for the noted compound at the indicated dose. The compounds are identified in the Examples.

[1] = system: mice falling off the inverted screen; assay: Mouse Activity and Screen Test Procedure (MAST): screen test; assay type: in vivo, Swiss-Webster male mice
Text: The compounds of the invention are new chemical substances which are useful as pharmaceutical agents for the treatment of psychoses. The antipsychotic activity of representative compounds of the invention was established by the Mouse Activity and Screen Test Procedure (MAST) described below. Animals Nine unfasted Swiss-Webster male mice weighing 20-30 g are equally divided into three groups for each drug dose to be tested. That is, data for each dose level was generated by three separate groups of three mice each. Drugs A minimum of three dose levels (10, 30, and 100 mg/kg) are tested for each drug. Treatments are administered intraperitoneally one hour prior to testing. All dosages are calculated as parent compound and given in volumes of 10 ml/kg. Compounds are dissolved or suspended in 0.2% Methocel. Control animals are injected with Methocel. Testing: A two part testing procedure is started one hour postinjection. First, the screen test (ST) is performed (see Pharmac. Biochem. Behav. 6, 351-353, 1977). Briefly this test consists of placing mice on individual wire screens which are then rotated 180 degrees at the start of a 60 second observation period. The number of mice falling off the inverted screen is recorded. Data: The data obtained from the screen test are expressed as percent of mice falling off the screen. Data derived from locomotor activity of drug treated mice are compared to the activity of vehicle treated animals and are expressed as percent inhibition of spontaneous locomotion. All percentages reported for inhibition of locomotion (LI) are based upon data accumulated for one hour. Both phases of testing are graded: A=60-100%; C=31-59%; and N=0-30%. An overall dose rating is obtained by the following criteria: LAD refers to the lowest dose at which an A rating is achieved. […] Utilizing this procedure, an overall dose rating of A was obtained for the noted compound at the indicated dose. The compounds are identified in the Examples.

Row | Screen test failure ([1]; 0.01 mg/kg IP) | Screen test failure ([1]; 0.03 mg/kg IP) | Screen test failure ([1]; 0.1 mg/kg IP) | Screen test failure ([1]; 0.3 mg/kg IP) | Screen test failure ([1]; 1 mg/kg IP) | Screen test failure ([1]; 3 mg/kg IP) | Screen test failure ([1]; 10 mg/kg IP) | Screen test failure ([1]; 30 mg/kg IP) | SMILES | Inhibition of mouse locomotor activity (mouse locomotor activity; 0.01 mg/kg IP) | Inhibition of mouse locomotor activity (mouse locomotor activity; 0.03 mg/kg IP) | Inhibition of mouse locomotor activity (mouse locomotor activity; 0.1 mg/kg IP) | Inhibition of mouse locomotor activity (mouse locomotor activity; 0.3 mg/kg IP) | Inhibition of mouse locomotor activity (mouse locomotor activity; 1 mg/kg IP) | Inhibition of mouse locomotor activity (mouse locomotor activity; 3 mg/kg IP) | Inhibition of mouse locomotor activity (mouse locomotor activity; 10 mg/kg IP) | Inhibition of mouse locomotor activity (mouse locomotor activity; 30 mg/kg IP)
1 | 0% | 0% | 33% | 11% | 33% | 88% | 100% | 100% | CCNC(=O)[C@H]1O[C@@H](n2cnc3c(N[C@H](C)Cc4ccccc4)ncnc32)[C@H](O)[C@@H]1O [Example 1, (R)-N-6-[(2-phenyl-1-methyl)ethyl]-adenosine-5'-ethylcarboxamide] | -8% | 18% | 91% | 75% | 92% | 99% | 99% | 99%
2 | – | – | 0% | 0% | 0% | 0% | 11% | 33% | CCNC(=O)[C@H]1O[C@@H](n2cnc3c(NCC(c4ccccc4)c4ccccc4)ncnc32)[C@H](O)[C@@H]1O [Example 3, N^6-(2,2-diphenylethyl)-adenosine-5'-ethylcarboxamide] | – | – | 20% | 1% | 72% | 92% | 90% | 93%
3 | – | – | – | – | – | 11% | 0% | 0% | CCOC(=O)[C@H]1O[C@@H](n2cnc3c(NCC(c4ccccc4)c4ccccc4)ncnc32)[C@H](O)[C@@H]1O [Example 5, N6-(2,2-diphenylethyl)-5-adenosine-5'-ethylcarboxylate] | – | – | – | – | – | -4% | 0% | 2%
4 | – | 0% | 0% | 0% | 11% | 11% | 0% | – | CCNC(=O)[C@H]1O[C@@H](n2cnc3c(NCc4cccc5ccccc45)ncnc32)[C@H](O)[C@@H]1O [Example 6, N-6-Naphthylmethyladenosine-5'-ethylcarboxamide] | – | 21% | 30% | 82% | 87% | 88% | 90% | –
